Biological target: T1, CXCR3 (Homo sapiens, UniProt P49682)
T1 sequence (P49682 1-368): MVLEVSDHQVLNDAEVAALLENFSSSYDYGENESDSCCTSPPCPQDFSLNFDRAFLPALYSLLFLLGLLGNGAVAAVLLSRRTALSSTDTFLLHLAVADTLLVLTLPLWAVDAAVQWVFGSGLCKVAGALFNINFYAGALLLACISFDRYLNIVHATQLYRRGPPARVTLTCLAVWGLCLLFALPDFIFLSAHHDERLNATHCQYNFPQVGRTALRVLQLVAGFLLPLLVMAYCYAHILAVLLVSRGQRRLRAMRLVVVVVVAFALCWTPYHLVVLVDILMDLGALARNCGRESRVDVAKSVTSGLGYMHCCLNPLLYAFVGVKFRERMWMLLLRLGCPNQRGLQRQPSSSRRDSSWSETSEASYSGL
Test: CXCR3 Ca2+ mobilization (FLIPR), stable hCXCR3-CHO cell line, I-TAC stimulated
Type: cell-based
Set-up: host or cells: CHO cells stably expressing hCXCR3
Conditions: hCXCR3-CHO cells, I-TAC 100 nM stimulated Ca2+ response; read-out: Ca-ITAC
Method: Human chinese hamster ovary (CHO) cell line stably expressing hCXCR3 was purchased from Euroscreen (Belgium) and culture in HAM's F12 (Invitrogen) containing 10% heat inactivated fetal calf serum (Cancerra, Australia), 50 units ml−1 penicillin, 50 μml−1 streptomycin, (Invitrogen, USA) and 400 μg/ml geneticin (G418) (Calbiochem, San Diego), according to the manufacturer.
CXCR3Ca^2+ mobilization was measured using a stable hCXCR3—CHO cell line and a microtiter-plate based assay using FLIPR^TETRA™ (Molecular Devices). In more detail, cells were harvested and plated into black 384-well plates (Becton-Dickinson) at a density of 15 000 cells per well and grown in the incubator for 18 hours. On the next day the media was aspirated and replaced with the cell loading buffer (HBSS—(Invitrogen) based buffer containing calcium indicator and signal enhancer from a commercial Ca2+ assay kit (Becton Dickinson). The plates were incubated for 60 minutes in the incubator, the test compounds were added and the plates equilibrated for 20 minutes at room temperature.
Plates were placed into FLIPR and the CXCR3 agonist (I-TAC, 100 nM) stimulated fluorescence change was quantitated. The activity of CXCR3 antagonists was determined as percent of the CXCR3 ligand I-TAC in the absence of the test compounds (=100% activity).

SMILES | IC50 [µM]
CC(C)(C)c1ccc(S(=O)(=O)N(Cc2ccc(C#N)cc2)Cc2ccccn2)cc1 [Example 177] | 1.45
COc1cccc(S(=O)(=O)N(Cc2ccc(C#N)cc2)Cc2ccccn2)c1 [Example 178] | 2
CC(C)(C)OC(=O)N[C@@H](C(=O)Nc1ccc(CN(Cc2ccccn2)S(=O)(=O)c2ccc(Cl)cc2)cc1)c1ccccc1 [Example 180] | 1
COC(C(=O)Nc1ccc(CN(Cc2ccccn2)S(=O)(=O)c2ccc(Cl)cc2)cc1)c1ccccc1 (stereo not shown) [Example 182] | 0.04
O=C(Nc1ccc(CN(Cc2ccccn2)S(=O)(=O)c2ccc(Cl)cc2)cc1)C(O)c1cccc(Cl)c1 (stereo not shown) [Example 184] | 1
N#Cc1ccc(CN(Cc2ccccn2)S(=O)(=O)c2ccccc2Cl)cc1 [Example 186] | 5
O=C(NC1(c2ccccc2)CC1)c1ccc(CN(Cc2cnccn2)S(=O)(=O)c2ccc(Cl)cc2)cc1 [Example 187] | 4
CCOC(=O)c1ccc(CN(Cc2ccccn2)S(=O)(=O)c2ccc(OCC)cc2)cc1 [Example 191] | 13
N#Cc1ccccc1CN(Cc1ccccn1)S(=O)(=O)c1ccc(Cl)cc1 [Example 196] | 13
N#Cc1ccc(CN(CCCc2ccccc2)S(=O)(=O)c2ccc(Cl)cc2)cc1 [Example 198] | 3.1
O=S(=O)(c1ccc(Cl)cc1)N(CCc1ccccc1)Cc1ccc(-c2nnn[nH]2)cc1 [Example 204] | 2.01
CCOc1ccc(S(=O)(=O)N(Cc2ccc(C(=O)NCC(C)c3ccccc3)cc2)Cc2cccnc2)cc1 (stereo not shown) [Example 206] | 4.5
O=S(=O)(c1ccc(Cl)cc1)N(CCCc1ccccc1)Cc1ccc(-c2nnn[nH]2)cc1 [Example 221] | 1.7
CC(CCc1ccccc1)N(Cc1ccc(-c2nnn[nH]2)cc1)S(=O)(=O)c1ccc(Cl)cc1 (stereo not shown) [Example 224] | 1.5
CC(CN(Cc1ccc(-c2nnn[nH]2)cc1)S(=O)(=O)c1ccc(Cl)cc1)c1ccccc1 (stereo not shown) [Example 227] | 5
O=S(=O)(c1ccc(Cl)cc1)N(Cc1cccc(-c2nnn[nH]2)c1)Cc1ccccn1 [Example 228] | 2.8
O=S(=O)(c1ccc(Cl)cc1)N(Cc1ccccc1)Cc1ccccc1-c1nnn[nH]1 [Example 229] | 1.6
N#Cc1cccc(CN(Cc2ccccc2)S(=O)(=O)c2ccc(Cl)cc2)c1 [Example 230] | 1.2
O=S(=O)(c1ccc(Cl)cc1)N(Cc1ccccc1)Cc1cccc(-c2nnn[nH]2)c1 [Example 234] | 1.5
CC(C)(Cc1ccccc1)N(Cc1ccc(-c2nnn[nH]2)cc1)S(=O)(=O)c1ccc(Cl)cc1 [Example 236] | 3
O=S(=O)(c1ccccc1Oc1ccccc1)N(Cc1ccc(-c2nnn[nH]2)cc1)Cc1ccccn1 [Example 237] | 25
O=S(=O)(c1ccccc1-c1ccccc1)N(Cc1ccc(-c2nnn[nH]2)cc1)Cc1ccccn1 [Example 253] | 9.5

SMILES | IC50 [µM]
CCOc1ccc(S(=O)(=O)N(Cc2ccc(N3CCOCC3)cc2)Cc2ccccn2)cc1 [Example 269] | 9
CCOc1ccc(S(=O)(=O)N(Cc2ccc(Oc3ccncc3)cc2)Cc2ccccn2)cc1 [Example 270] | 6
CC(c1cccc(-c2nnn[nH]2)c1)N(Cc1ccccc1)S(=O)(=O)c1ccc(Cl)cc1 (stereo not shown) [Example 271] | 5
N#Cc1ccc(CN(C(=O)c2ccccn2)S(=O)(=O)c2ccc(Cl)cc2)cc1 [Example 279, 4-Chloro-N-(4-cyano-benzyl)-N-(pyridine-2-carbonyl)-benzenesulfonamide] | 10
O=S(=O)(c1ccc(Cl)cc1)N(Cc1ccc(-c2nnn[nH]2)cc1)Cc1ccccc1-n1cccn1 [Example 280] | 20
N#Cc1ccc(C(=O)N(Cc2ccccn2)S(=O)(=O)c2ccc(Cl)cc2)cc1 [Example 281, 4-Chloro-N-(4-cyano-benzoyl)-N-pyridin-2-ylmethyl-benzenesulfonamide] | 7
N#Cc1ccc(S(=O)(=O)N(Cc2ccc(C(=O)NC3(c4ccc(OC(F)(F)F)cc4)CC3)cc2)Cc2ccccn2)cc1 [Example 282] | 5.5
CCOc1ccc(S(=O)(=O)N(Cc2ccc(C(=O)NC3(c4ccc(OC(F)(F)F)cc4)CC3)cc2)Cc2ccccn2)cc1 [Example 283] | 7.5
N#Cc1ccc(CCN(Cc2ccccn2)S(=O)(=O)c2ccc(Cl)cc2)cc1 [Example 286, 4-Chloro-N-[2-(4-cyano-phenyl)-ethyl]-N-pyridin-2-ylmethyl-benzenesulfonamide] | 4
Cc1ccccc1S(=O)(=O)N(Cc1ccc(C#N)cc1)Cc1ccccn1 [Example 287] | 7
N#Cc1ccc(CN(C2CCc3cc(Cl)ccc32)S(=O)(=O)c2ccc(Cl)cc2)cc1 (stereo not shown) [Example 299] | 5.5
N#Cc1ccc(S(=O)(=O)N(Cc2ccc(NC(=O)Cc3nnn[nH]3)cc2)Cc2ccccn2)cc1 [Example 300] | 12
Cc1cccc(S(=O)(=O)N(Cc2ccc(-c3nnn[nH]3)cc2)Cc2ccccn2)c1 [Example 311] | 10
N#Cc1ccc(CN(Cc2ccccn2)S(=O)(=O)c2cccc(Cl)c2)cc1 [Example 313] | 15
O=C(O)c1ccc(CN(Cc2cnccn2)S(=O)(=O)c2ccc(Cl)cc2)cc1 [Example 319] | 20
COc1cc(OC)nc(CN(Cc2ccc(C(=O)O)cc2)S(=O)(=O)c2ccc(Cl)cc2)n1 [Example 328] | 13
O=C(NC1(c2ccccc2)CC1)c1ccc(CN(Cc2ccc3cccnc3n2)S(=O)(=O)c2ccc(Cl)cc2)cc1 [Example 330] | 10
COC(=O)C(Cc1ccc(O)cc1)NC(=O)c1ccc(CN(Cc2ccccn2)S(=O)(=O)c2ccc(Cl)cc2)cc1 (stereo not shown) [Example 345] | 18
CCOc1ccc(S(=O)(=O)N(Cc2ccc(C(=O)O)c(OC)c2)Cc2ccccn2)cc1 [Example 346] | 7
CCOc1ccc(S(=O)(=O)N(Cc2ccc(C(=O)OC)c(O)c2)Cc2ccccn2)cc1 [Example 353] | 6
O=C(NC(Cc1ccc(O)cc1)C(=O)O)c1ccc(CN(Cc2ccccn2)S(=O)(=O)c2ccc(Cl)cc2)cc1 (stereo not shown) [Example 354] | 6
